In patent US6395728B2, “Method of treatment and pharmaceutical composition” (Novartis AG, priority 1999, dated 2002):

Tested on: diabetic SHRs
Test: Survival of streptozotocin-induced diabetic SHRs under drug treatment
Assay type: in vivo, rat
Conditions: week 21 of treatment
Experimental: Diabetes is induced in SHRs aged about 6 to 8 weeks weighing about 250 to 300 g by treatment e.g. with streptozotocin. The drugs are administered by twice daily average. Untreated diabetic SHRs are used as control group (group 1). Other groups of diabetic SHRs are treated with 30 mg/kg of valsartan (group 2), with 20 mg/kg of verapamil (group 3) and with a combination of 20 mg/kg of valsartan and 15 mg/kg of verapamil (group 4). On a regular basis, besides other parameters the survival rate after 21 weeks of treatment is being monitored.

SMILES	Survival Rate (30 mg/kg of valsartan (group 2)) [%]	Survival Rate (20 mg/kg of verapamil (group 3)) [%]
CCCCC(=O)N(Cc1ccc(-c2ccccc2-c2nnn[nH]2)cc1)[C@H](C(=O)O)C(C)C [valsartan, (S)-N-(1-carboxy-2-methyl-prop-1-yl)-N-pentanoyl-N-[2′(1H-tetrazol-5-yl)biphenyl-4-yl-methyl]amine]	45.9	–
COc1ccc(CCN(C)CCCC(C#N)(c2ccc(OC)c(OC)c2)C(C)C)cc1OC (centres unmarked) [verapamil]	–	42.9
